Measurements: ChEMBL document CHEMBL1141600, “Biphenyl versus phenylpyridazine derivatives: the role of the heterocycle in a series of acyl-CoA:cholesterol acyl transferase inhibitors” (J Med Chem, 2008)

How the values were obtained:
[1] = biological target: T1, Sterol O-acyltransferase 2 (Homo sapiens) (UniProt O75908); experiment: Inhibition of human ACAT2 expressed in insect Hi5 cells at 50 uM; conditions: BTI-TN-5B1-4
T1 sequence (whole entry): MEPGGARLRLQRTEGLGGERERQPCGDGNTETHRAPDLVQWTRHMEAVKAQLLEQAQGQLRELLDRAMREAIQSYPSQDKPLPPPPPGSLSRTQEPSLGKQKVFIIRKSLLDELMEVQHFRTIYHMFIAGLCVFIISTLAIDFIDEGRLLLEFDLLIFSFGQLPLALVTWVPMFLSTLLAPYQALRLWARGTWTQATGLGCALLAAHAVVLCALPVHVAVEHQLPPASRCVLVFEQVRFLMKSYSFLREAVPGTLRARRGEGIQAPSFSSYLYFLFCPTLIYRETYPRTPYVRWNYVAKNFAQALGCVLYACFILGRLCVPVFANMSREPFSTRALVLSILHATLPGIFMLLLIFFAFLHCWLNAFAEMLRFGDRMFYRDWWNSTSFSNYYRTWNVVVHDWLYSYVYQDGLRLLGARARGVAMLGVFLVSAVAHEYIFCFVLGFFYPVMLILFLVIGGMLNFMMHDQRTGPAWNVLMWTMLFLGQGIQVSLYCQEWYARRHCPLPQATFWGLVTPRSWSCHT

[2] = biological target: T2, Sterol O-acyltransferase 1 (Homo sapiens) (UniProt P35610); experiment: Inhibition of human ACAT1 expressed in insect Hi5 cells at 0.5 uM; conditions: BTI-TN-5B1-4
T2 sequence (whole entry): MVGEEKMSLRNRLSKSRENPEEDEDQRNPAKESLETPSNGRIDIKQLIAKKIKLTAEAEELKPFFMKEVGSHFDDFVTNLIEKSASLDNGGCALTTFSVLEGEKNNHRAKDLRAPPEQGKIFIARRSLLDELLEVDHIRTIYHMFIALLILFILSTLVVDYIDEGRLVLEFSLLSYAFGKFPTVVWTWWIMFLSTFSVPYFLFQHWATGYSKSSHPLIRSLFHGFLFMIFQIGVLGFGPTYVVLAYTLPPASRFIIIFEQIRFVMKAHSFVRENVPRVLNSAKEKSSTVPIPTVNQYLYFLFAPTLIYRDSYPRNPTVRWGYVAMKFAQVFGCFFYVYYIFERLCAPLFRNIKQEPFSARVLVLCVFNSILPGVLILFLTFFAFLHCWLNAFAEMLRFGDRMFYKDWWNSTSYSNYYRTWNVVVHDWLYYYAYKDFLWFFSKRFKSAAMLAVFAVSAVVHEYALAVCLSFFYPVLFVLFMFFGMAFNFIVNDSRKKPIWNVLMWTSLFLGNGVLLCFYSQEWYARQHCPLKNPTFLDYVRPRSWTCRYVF

[3] = biological target: T1, Sterol O-acyltransferase 2 (Homo sapiens); experiment: Inhibition of human ACAT2 expressed in insect Hi5 cells at 0.5 uM; conditions: BTI-TN-5B1-4
[4] = biological target: T3, Sterol O-acyltransferase 2 (Homo sapiens, UniProt O75908); experiment: Inhibition of human ACAT2 expressed in insect Hi5 cells; set-up: species or system BTI-TN-5B1-4
T3 sequence (O75908 whole entry): T1 sequence (whole entry)

Compound | inhibition [1] | further results
CCCCCCCCNc1ccc(-c2ccccc2)cc1 | 6% | 
CCCCCCCC(=O)Nc1ccc(-c2ccccc2)cc1 | 11% | 
CCCCCCCCCNc1ccccc1-c1ccccc1 | -1% | 
CCCCCCCCNc1ccccc1-c1ccccc1 | -4% | 
CCCCCCCC/C=C\CCC(CCCC(C(=O)Nc1ccccc1)C(C)C)C(C)C (stereo not given) |  | inhibition [2]: 53%; inhibition [3]: 47%
CCCCCCCCCNc1cccc(-c2ccccc2)c1 | -8% | 
CCCCCCCCCNc1ccc(-c2ccccc2)cc1 | 18% | 
CCCCCCCC(=O)Nc1ccccc1-c1ccccc1 | 39% | IC50 [4]: 230 µM

Continued, in another order:

inhibition [1] | Compound | further results
-4% | CCCCCCCC(=O)Nc1cccc(-c2ccccc2)c1 | 
27% | CCCCCCCCC(=O)Nc1ccccc1-c1ccccc1 | IC50 [4]: 414 µM
-6% | CCCCCCCCC(=O)Nc1cccc(-c2ccccc2)c1 | 
20% | CCCCCCCCC(=O)Nc1ccc(-c2ccccc2)cc1 | 
